US9464326B2, “Total and phosphorylated IL-1 receptor-associated kinase-1 and IL-1 receptor-associated kinase-4 as a biomarker for cancer progression and chemotherapy resistance” (University of Maryland, Baltimore, priority 2012, dated 2016)

System: CCRF-CEM cells
Assay: Cell number and apoptosis assays
Type: cell-based, human
Details: IRAK-1,-4 inhibitor 0-20 μM plus titrated drug, apoptosis by 7AAD at 48 hours, FIG. 23
Protocol: TLR ligands were diluted 2-fold. Cell lines (25-40×10^3/well) were cultured for 54 hours, whereas fresh patient-derived T-ALL cells (200×10^3/well) were cultured for 30 hours prior to adding [^3H]-thymidine for 18 hours. After this time point, cells were harvested with a Packard Filter-Mate-96 cell harvester (Perkin Elmer, Waltham, Mass., USA) and counted on Packard Top Count-NXT (Perkin Elmer, Waltham, Mass., USA). Results were expressed as average counts per minute (cpm). In some experiments CCRF-CEM cells were pre-treated with TLR1-TLR2 ligand (Pam3CysK4; 2.5 ug/ml) for 48 hrs, washed, and then cultured in the presence of varying concentrations of FBS. Forty-eight hours later, proliferation (±SD) was determined by ^3H-thymidine incorporation. Alternatively, apoptosis was measured by flow cytometry after staining cells with Annexin-V (BD Pharmingen, San Diego, Calif., USA) and propidium iodide (Sigma). Cell number was counted under microscopy by staining cells with trypan blue.
CCRF-CEM cells were treated with IRAK-1,-4 inhibitor for 24, 48, 72, and 96 hours.
The T-ALL cell line CCRF-CEM was cultured in the presence of 0, 1.2, 5, 10, and 20 μM IRAK-1,-4 inhibitor. (FIG. 23). To each concentration of IRAK-1,-4 inhibitor titrating doses of ABT-737 (1000→15 nM) vincristine, VS (10→0.1 nM), and paclitaxol, PAC (100→1.5 nM). […] Apoptosis was measure 48 hours later by staining cells with 7AAD and analyzed by flow cytometry.

CC(=O)O[C@H]1C(=O)[C@@]2(C)[C@H]([C@H](OC(=O)c3ccccc3)[C@]3(O)C[C@H](OC(=O)[C@H](O)[C@@H](NC(=O)c4ccccc4)c4ccccc4)C(C)=C1C3(C)C)[C@]1(OC(C)=O)CO[C@@H]1C[C@@H]2O [paclitaxel]
synergy with IRAK-1,-4 inhibitor: synergy
